Entries after “also recorded” stand apart in the source; their conditions may differ.

What all share (assay type): cell-based, Mouse
Test [1] relates to C2C12 cells differentiated into myotube cells. Kind of test: Dexamethasone-induced myotube atrophy in C2C12 cells, myotube cell diameter (Example 1-2, also used for Examples 2 and 3). How it is done: Mouse myoblast cell line C2C12 cells (RIKEN BRC, RCB0987) were suspended in growth medium (Dulbecco's modified Eagle's Medium supplemented with 10% FBS, 100 units/ml of penicillin, 100 μg/ml of streptomycin), seeded in 24-well plates, and incubated in a 37° C., 5% CO2 incubator until the cell density reached 70-90%.
The growth medium was removed, and exchanged to a differentiation induction medium (Dulbecco's modified Eagle's Medium supplemented with 2% adult bovine serum, 100 units/ml of penicillin, 100 μg/ml of streptomycin). The cells were cultured for 4 days while exchanging the medium once every 2 days and differentiated into myotube cells. The medium was removed and exchanged to the following media: • (1) Differentiation induction medium containing no dexamethasone [Dex (−)]; • (2) Differentiation induction medium containing 100 μM dexamethasone [Dex (+)]; • (3) Differentiation induction medium containing 100 μM dexamethasone and a certain amount of disodium cytidylate [Dex (+), a certain amount of CMP]; • (4) Differentiation induction medium containing 100 μM dexamethasone and a certain amount of cytidine [Dex (+), a certain amount of cytidine (which may be abbreviated as “Cyd”)]; • (5) Differentiation induction medium containing 100 μM dexamethasone and a certain amount of disodium uridylate [Dex (+), certain amount of UMP]; and • (6) Differentiation induction medium containing 100 μM dexamethasone and a certain amount of uridine [Dex (+), certain amount of uridine].
After culturing the cells for 3 days, five positions near the center of the wells were photographed at magnifications of 100. Using ImageJ image analysis software, the diameters of 10 myotube cells per a photograph were measured in the order from the myotube cell having the largest diameter, and an average of 50 cells was determined to be the diameter of the myotube cell in each well. Statistical analysis was performed by t-test or Dunnett's multiple comparison test using the differentiation induction medium treatment group supplemented only with 100 μM dexamethasone as a control. The threshold for statistical significance was set to 5%.
Cytidylic acid and uridylic were added to the medium at the concentrations shown in FIG. 7 so that the total concentration of cytidylic acid and uridylic acid was 1000 μM.
In Example 2, the total concentration of cytidylic acid/uridylic acid added to the medium was adjusted to 1000 μM and a ratio of the cytidylic acid/uridylic acid was varied.
Similarly, the effect of the combination of cytidine and uridine were also evaluated.

For test [2], the system named is Atrogin-1. Put plainly: Atrogin-1 mRNA expression in dexamethasone-treated C2C12 myotube cells (Example 4). Particulars: 48 hours pretreatment, then 1 μM dexamethasone plus test substance 24 hours, corrected by β-actin. How it is done: (§1) Mouse myoblast cell line C2C12 cells were suspended in growth medium, seeded in 24-well plates, and incubated in a 37° C., 5% C02 incubator until the cell density reached 70-90%. The growth medium was removed, and exchanged to a differentiation induction medium. The cells were cultured for 6 days while exchanging the medium once every 2 days and differentiated into myotube cells. The medium was removed and exchanged to a differentiation induction medium or a differentiation induction medium containing a test substance. After 48 hours, the medium was removed and replaced with a differentiation induction medium, a differentiation induction medium supplemented only with 1 μM dexamethasone, or a medium supplemented with 1 μM dexamethasone and test substances (a certain amount of UMP (disodium uridylate), a certain amount of Urd (uridine), and […]).
(§2) After 24 hours, the medium was removed and total RNA was extracted from the cells using RNeasy Mini kit (QIAGEN) or NucleoSpin RNA (Takara Bio).
(§3) Using the total RNA as a template, a reverse transcription reaction solution was prepared using the ReverTra Ace(R) qPCR RT Kit (Toyobo). […] Analysis was performed by relative quantification, and mRNA expression levels were corrected using the β-actin mRNA expression level as an endogenous control. […]

Test [3] deals with MuRF1. Kind of test: MuRF1 mRNA expression in dexamethasone-treated C2C12 myotube cells (Example 4). The conditions noted are these: 48 hours pretreatment, then 1 μM dexamethasone plus test substance 24 hours, corrected by β-actin. How it is done: as §1, §2, §3
In test [4] the test system is C2C12 cells differentiated into myotube cells. Kind of test: Dexamethasone-induced myotube atrophy in C2C12 cells, myotube cell diameter (Example 1-1). Particulars: 100 μM dexamethasone plus 2 mM or 5 mM disodium uridylate, 48 hours, vs Dex (+), UMP (−). How it is done: Mouse myoblast cell line C2C12 cells (RIKEN BRC, RCB0987) were suspended in growth medium (Dulbecco's modified Eagle's Medium supplemented with 10% FBS, 100 units/ml of penicillin, 100 μg/ml of streptomycin), seeded in 24-well plates, and incubated in a 37° C., 5% C02 incubator until the cell density reached 70-90%.
The growth medium was removed, and exchanged to a differentiation induction medium (Dulbecco's modified Eagle's Medium supplemented with 2% adult bovine serum, 100 units/ml of penicillin, 100 μg/ml of streptomycin). The cells were cultured for 4 days while exchanging the medium once every 2 days and differentiated into myotube cells. […]
After 24 hours, the medium was changed again. […] Using ImageJ image analysis software, the diameters of 10 myotube cells per a photograph were measured in the order from the myotube cell having the largest diameter, and an average of 50 cells was determined to be the diameter of the myotube cell in each well. […]

Where [5] appears, read: Example 1-2, 100 μM dexamethasone plus a certain amount of test substance, 3 days, vs Dex (+) only.
[6] abbreviates: Example 3, 100 μM dexamethasone plus single test substance.

Turning to `Nc1ccn([C@@H]2O[C@H](CO)[C@@H](O)[C@H]2O)c(=O)n1` [cytidine], the myotube cell diameter entry in test [1] (setting [5]) is “significantly increased; also recorded: myotube cell atrophy inhibiting effect”; in test [1] (setting [6]), “significantly increased”.

`Nc1ccn([C@@H]2O[C@H](COP(=O)(O)O)[C@@H](O)[C@H]2O)c(=O)n1` [cytidylic acid]: the myotube cell diameter entry in test [1] (setting [5]) was “significantly increased; also recorded: myotube cell atrophy inhibiting effect”; in test [1] (setting [6]), “significantly increased”.

`O=c1ccn([C@@H]2O[C@H](CO)[C@@H](O)[C@H]2O)c(=O)[nH]1` [uridine]: in test [2], the “mRNA expression level of Atrogin-1” value is given as “decreased; also recorded: excellent inhibiting effect”. Further, the results for the myotube cell diameter result in test [1] (setting [5]) and in test [1] (setting [6]) were “significantly increased; also recorded: myotube cell atrophy inhibiting effect” and “significantly increased”, respectively. Also, in test [3], the “mRNA expression level of MuRF1” value is listed as “decreased; also recorded: excellent inhibiting effect”.

For `O=c1ccn([C@@H]2O[C@H](COP(=O)(O)O)[C@@H](O)[C@H]2O)c(=O)[nH]1` [uridylic acid], the myotube cell diameter entry in test [4] is given as “the reduction was suppressed”; in test [1] (setting [5]), “significantly increased; also recorded: myotube cell atrophy inhibiting effect”; in test [1] (setting [6]), “significantly increased”. In addition, the “mRNA expression level of Atrogin-1” value in test [2] is recorded as “decreased; also recorded: excellent inhibiting effect”. Also, the “mRNA expression level of MuRF1” value in test [3] is recorded as “decreased; also recorded: excellent inhibiting effect”.

The values are drawn from patent US12661369B2, “Muscular atrophy inhibitor and method for inhibiting muscular atrophy” (YAMASA CORPORATION, priority 2020, dated 2026).
